Reference: patent publication US9040266B2, “Cell-based systems for production of methyl formate” (The Regents of the University of California, priority 2009, dated 2015)

What was measured:
[1] = biological target: methyl halide transferase (MHT) (Batis maritima, UniProt Q9ZSZ7); details: halide ion as substrate; Attieh et al. 1995, Ni and Hager 1999; cited from earlier work
[2] = system: S. cerevisiae W303a lab strain; assay: Methyl iodide toxicity assay in yeast; type: cell-based, Saccharomyces cerevisiae; details: cultures diluted to OD600 0.05, OD600 at 24 hours, FIG. 11D
Description: (§1) FIG. 11A-D: Methyl iodide production in recombinant S. cerevisiae. FIG. 11A. CH3I production pathway. The B. maritima MHT is expressed with a N-terminal vacuole targeting tag. The […] MHT methylates iodide ions using SAM as a methyl donor. FIG. 11B, CH3I measured in culture headspace over time. Activity on glucose-grown cells is shown. FIG. 11C, CH3I yields in grams per liter of culture per day. Values for the culturable red algae E. muricata are taken from the literature. Yields from B. maritime MHT-expressing E. coli and S. cerevisiae are calculated by comparison to standard curves. FIG. 11D, CH3I toxicity in yeast. Exponential phase cultures were diluted to an OD600 of 0.05 and commercially available CH3I was added. OD600 was measured at 24 hours of growth. The W303a lab strain is shown in filled boxes, the DNA methylation-sensitive RAD50Δ mutant is shown in open boxes.
(§2) The response of the host organism to toxic effects of an overproduced metabolite is important for development of an integrated industrial process. Methyl halides are SN2 methylating agents known to cause cytotoxic lesions in ssDNA and RNA. […]
(§3) Individual colonies were inoculated in YP media with 2% glucose and grown overnight. […] OD600 was measured by spectrometry with YP media used as a blank. […]

RAD50Δ mutant = type: cell-based, Saccharomyces cerevisiae; details: RAD50Δ mutant versus W303a, OD600 at 24 hours
Description: as §1, §2, §3

A. fermentans = details: accumulation of fermentation products; cited from earlier work
[3] = system: methyl bromide and methyl iodide production in E. Coli; assay: Methyl halide production by heterologous MHTs expressed in E. coli (Example 8, headspace GC/MS); type: cell-based; details: FIG. 7
Experimental: Nineteen methyl halide transferase genes from various organisms were codon-optimized and introduced into E. Coli. Production of methyl bromide and methyl iodide was determined for each. […] Group II UBA; Cryptococcus neoformans var. neoformans JEC21; Oryza sativa (japonica cultivar-group); Ostreococcus tauri; Dechloromonas aromatica RCB; Coprinopsis cinerea okayama; Robiginitalea bofirmata HTCC2501; Maricaulis maris MCS10; Flavobacteria bacterium BBFL7; Vitis vinifera and; halorhodospira halophila SL1.
For each strain a single colony was picked and grown overnight (10-14 hrs) in 20 mL of LB miller in a 30 mL glass test tube with aeration (a loose cap) at 37 C and 250 rpm shaking. The culture was spun down in a swinging bucket centrifuge for 5 min @ 3000×g. The cells were resuspended in 20mL of appropriate media (10 g/L Tryptone, 5 g/L Yeast Extract, 165 mM NaX [where X=CI, Br, I]) containing 100 uM IPTG inducer. The cells were sealed with rubber stoppers and parafilm and grown at 37 C with 250 rpm shaking for 1.5 hours. Cultures were taken to the GC/MS and 100 uL of headspace gas was sampled and loaded onto the column. The method run was VOIGT.m. The number of counts for the appropriate mass (MeCl, MeBr, MeI) were reported. Cells were always grown in the presence of 30 ug/mL chloramphenicol.
Methyl halide production was measured as described in the previous Examples. […] C. neoformans JEC21 gave the best methyl bromide and methyl iodide production. Leptospirillum gave the best methyl iodide production.

[4] = system: methyl halide production in E. coli on chloride, bromide and iodide; assay: MHT library screen for methyl halide activity in E. coli (Example 9B); type: cell-based; details: library of 89 genes, FIG. 10A
Description: As described in Example 9A, to screen for MHTs with high activity in a recombinant host, we synthesized all putative MHTs from the NCBI sequence database and assayed methyl halide production in E. colit. […] These genes were computationally codon optimized for E. coli and yeast expression and constructed using automated whole gene DNA synthesis.
Methyl halide production was sampled by analyzing the headspace gas using GC-MS (Supplementary Information).
Bacteria carrying MHT expression vectors were inoculated from freshly streaked plates and grown overnight. Cells were diluted 100-fold into media containing 1 mM IPTG and 100 mM appropriate sodium halide salt. Culture tubes were sealed with a rubber stopper and grown at 37 degrees for 3 hours. Yeast carrying MHT expression vectors were streaked on uracil dropout plates from freezer stocks (15% glycerol) and grown for 48 hours. Individual colonies were inoculated into 2 mL of synthetic complete uracil dropout media and grown overnight at 30 degrees. Cultures were next inoculated into 100 mL fresh synthetic complete uracil dropout media and grown for 24 hours. Cells were spun down and concentrated to high cell density (OD 50) in fresh YP media with 2% glucose and 100 mM sodium iodide salt. 10 mL of this concentrated culture was aliquoted into 14 mL culture tubes and sealed with a rubber stopper. […]

I [I^−, iodide]
Km [1]: 8.5 mM

CI [methyl iodide]
level up to which yeast were resistant to deleterious methylating effects of methyl iodide [2]: > 5000 µg/mL | sensitivity to methyl iodide (RAD50Δ mutant): increased sensitivity

CCO [ethanol]
A. fermentans growth (A. fermentans): inhibited

[Br-].[K+] [Br^−, bromide]
Km [1]: 18.5 mM

CC(=O)O [acetate]
A. fermentans growth (A. fermentans): inhibited

B1: B. maritima: methyl halide transferase from Batis maritima, SEQ ID NO: 3 (protein, listed as Batis maritima)
chain: MSTVANIAPVFTGDCKTIPTPEECATFLYKVVNSGGWEKCWVEEVIPWDLGVPTPLVLHLVKNNALPNGKGLVPGCGGGYDVVAMANPERFMVGLDISENALKKARETFSTMPNSSCFSFVKEDVFTWRPEQPFDFIFDYVFFCAIDPKMRPAWGKAMYELLKPDGELITLMYPITNHEGGPPFSVSESEYEKVLVPLGFKQLSLEDYSDLAVEPRKGKEKLARWKKMNN
methyl bromide production ([3]; 165 mM NaX, 100 uM IPTG, 1.5 hours): best | halide specificity of methyl halide production [3]: significant specificity for methyl bromide production | methyl halide activity on each ion (chloride, bromide, iodide) [4]: highest activity
